From patent US20250325645A1, “BOVINE VIRAL DIARRHEA VIRUS IMMUNOGENIC COMPOSITIONS AND METHODS OF USE THEREOF” (KANSAS STATE UNIVERSITY RESEARCH FOUNDATION, priority 2021, published 2025)

tested on: CD8+ T cells from BVDV-immunized steers; test: MHC I blocking ELISPOT assay; conditions: steers 2539 and 2593; 2.5 μg/ml peptide; mAbs H58A and PT85A at 1.0 μg/ml vs IgG2a isotype control; p<0.05
Description: Co-cultures of CD8+ T cells and autologous CD14+ monocytes from one TGAC-immunized steer (2539) and one A125-immunized steer (2593), were incubated with 2.5 μg/ml of peptide in the presence of either the two anti-bovine MHC I mAbs or IgG2a isotype control. The IFN-γ+CD8+ T cell responses in the presence or absence of anti-bovine MHC I mAbs were reported as SFC per million CD8+ T cells described as above.
The results from MHC I blocking ELISPOT assay were analyzed by Wilcoxon test in GraphPad Prism 7 (Version 7.04, GraphPad Software, Inc. La Jolla, CA). The significance of the difference in peptide-specific IFN-γ+CD8+ T cell responses in the absence or presence of anti-bovine MHC I mAbs was determined by a non-parametric test and the level of significance was set at p<0.05.

Sequence | IFN-γ+CD8+ T cell recall responses in the presence of anti-bovine MHC I mAbs
GSVWNLGKY [Peptide 56] | significantly reduced
YYDDNLNEI [Peptide 64] | significantly reduced
SEQKRTLLM [Peptide 37] | significantly reduced
FGAYAASPY [Peptide 86] | significantly reduced
YFEPRDNYF [Peptide 100] | significantly reduced
GPVYHRAPL [Peptide 61] | significantly reduced
